{
  "source": "patent US20230022721A1",
  "about": "“COMPOSITIONS AND METHODS FOR INHIBITION AND INTERRUPTION OF BIOFILM FORMATION” (DENTSPLY SIRONA Inc., priority 2016, published 2023)",
  "origin": "cited, not measured here",
  "key": {"[1]": {"system": "Fungi: C. albicans; A. niger"}, "[2]": {"system": "Bacteria: S. aureus; P. aeruginosa; E. coli"}, "[3]": {"system": "Bacteria: P. aeruginosa; Staphylococcus spp."}, "[4]": {"system": "Bacteria: E. coli; S. aureus; S. typhimurium"}, "[5]": {"system": "Bacteria: Gram-positive bacteria", "conditions": "vs model compound"}},
  "data": [
    {"smiles": "Cc1cc(NS(=O)(=O)c2ccc(N3C(=O)C=CC3=O)cc2)no1", "values": [
      {"measurement": "Comparison of Polymers with Monomer", "setting": "[1]", "value": "The homopolymer is more effective than the monomer at all concentrations.^[6]"}
    ]},
    {"smiles": "C=C(C)C(=O)OCC(O)CSc1nnc(C)s1", "note": "(centres unmarked)", "values": [
      {"measurement": "Comparison of Polymers with Monomer", "setting": "[2]", "value": "The homopolymer is more effective than the monomer.^[8]"}
    ]},
    {"smiles": "C=CC(=O)Oc1cc(Cl)ccc1Oc1ccc(Cl)cc1Cl", "values": [
      {"measurement": "Comparison of Polymers with Monomer", "setting": "[3]", "value": "The homopolymer and copolymers with methyl methacrylate, styrene are all less effective than the monomer.^[10]"}
    ]},
    {"smiles": "C=CC(=O)Oc1ccc(Cl)c2cccnc12", "values": [
      {"measurement": "Comparison of Polymers with Monomer", "setting": "[4]", "value": "The homopolymer and the copolymers with acrylamide are both less effective than the monomer.^[13]"}
    ]},
    {"smiles": "C=Cc1ccc(C[S+]2CCCC2)cc1", "values": [
      {"measurement": "Comparison of Polymers with Monomer", "setting": "[5]", "value": "The homopolymer is more effective than the corresponding model compound (p- ethylbenzyl tetramethylene sulforium tetrafluoroborate)."}
    ]}
  ]
}
